Experimental data reported in patent US9730931B2, “Pyrimidine FGFR4 inhibitors” (priority 2013, dated 2017).
Where two headings read alike, the source gives them in different places.

Tested on: Hep3B xenograft
Assay type: in vivo

SMILES | Comparative in vivo efficacy (25, 37.5 or 50 mg/kg i.p. twice daily) | Tolerability (health of animals) (30 mg/kg orally twice daily) | Comparative in vivo efficacy (60 mg/kg orally twice daily) | Tolerability (health of animals) (60 mg/kg orally twice daily)
C=CC(=O)Nc1cc(N2CCN(CC)CC2)ccc1Nc1cc(N(C)C(=O)Nc2c(Cl)c(OC)cc(OC)c2Cl)ncn1 [Example 108, N-(2-(6-(3-(2,6-Dichloro-3,5-dimethoxyphenyl)-1-methylureido)-pyrimidin-4-ylamino)-5-(4-ethylpiperazin-1-yl)-phenyl)-acrylamide] | more efficacious than BGJ398 at tolerable dosage levels | – | – | –
CCN1CCN(c2ccc(Nc3cc(N(C)C(=O)Nc4c(Cl)c(OC)cc(OC)c4Cl)ncn3)cc2)CC1 [BGJ398] | – | did not exhibit poor health | efficacy comparable to compound 108 | terminated on Day 11 due to poor health of animals
